Measurements published in ChEMBL document CHEMBL1201862, “PubChem BioAssay data set” (2004).
Activity calls are given as the source filed them.

What was measured:
[1] = target: T1, Cannabinoid receptor 2 (Homo sapiens, UniProt P34972); assay: SAR analysis of antagonists of the Cannabinoid Receptor 2 using an Image-Based Assay - Set 2. [Related pubchem assays (depositor defined):AID1961, AID1965]; format: functional
[2] = target: T1, Cannabinoid receptor 2; assay: SAR analysis of agonists of the Cannabinoid Receptor 2 using an Image-Based Assay - Set 2. [Related pubchem assays (depositor defined):AID1961, AID1965]; format: functional
[3] = target: T2, Cannabinoid receptor 1 (Homo sapiens, UniProt P21554); assay: SAR analysis of antagonists of the Cannabinoid Receptor 1 using an Image-Based Assay - Set 3. [Related pubchem assays (depositor defined):AID1961, AID1965]; format: functional
T2 sequence (P21554 whole entry): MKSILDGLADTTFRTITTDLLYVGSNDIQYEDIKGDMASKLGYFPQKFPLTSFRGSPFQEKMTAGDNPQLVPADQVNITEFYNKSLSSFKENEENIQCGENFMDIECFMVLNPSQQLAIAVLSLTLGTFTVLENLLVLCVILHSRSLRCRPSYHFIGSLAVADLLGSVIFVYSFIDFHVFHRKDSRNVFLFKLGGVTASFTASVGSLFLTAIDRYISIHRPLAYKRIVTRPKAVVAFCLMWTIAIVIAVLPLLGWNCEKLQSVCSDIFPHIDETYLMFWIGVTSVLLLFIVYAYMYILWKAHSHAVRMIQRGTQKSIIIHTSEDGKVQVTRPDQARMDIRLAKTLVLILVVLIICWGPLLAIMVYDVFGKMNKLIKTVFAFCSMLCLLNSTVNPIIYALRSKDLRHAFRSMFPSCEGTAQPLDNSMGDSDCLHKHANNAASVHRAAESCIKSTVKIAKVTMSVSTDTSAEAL

[4] = target: T3, G-protein coupled receptor 35 (Homo sapiens, UniProt Q9HC97); assay: SAR analysis of Agonists of the GPR35 Receptor using an Image-Based Assay - Set 3. [Related pubchem assays (depositor defined):AID1961, AID1965]; format: functional
T3 sequence (Q9HC97 whole entry): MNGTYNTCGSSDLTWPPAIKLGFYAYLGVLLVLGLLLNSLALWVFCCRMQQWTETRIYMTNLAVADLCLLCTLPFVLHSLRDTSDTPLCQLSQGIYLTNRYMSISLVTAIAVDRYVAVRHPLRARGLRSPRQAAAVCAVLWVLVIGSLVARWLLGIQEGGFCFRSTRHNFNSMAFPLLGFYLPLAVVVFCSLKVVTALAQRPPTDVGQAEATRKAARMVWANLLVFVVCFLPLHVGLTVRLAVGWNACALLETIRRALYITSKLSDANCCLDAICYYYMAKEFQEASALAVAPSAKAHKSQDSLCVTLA

[5] = target: T2, Cannabinoid receptor 1; assay: SAR analysis of agonists of the Cannabinoid Receptor 1 using an Image-Based Assay - Set 3. [Related pubchem assays (depositor defined):AID1961, AID1965]; format: functional
[6] = target: T3, G-protein coupled receptor 35; assay: SAR analysis of Antagonists of the GPR35 Receptor using an Image-Based Assay - Set 4. [Related pubchem assays (depositor defined):[…]]; format: functional
[7] = target: G-protein coupled receptor 55 (Homo sapiens, UniProt Q9Y2T6); assay: SAR analysis of selective Agonists of GPR55 using an Image-Based Assay - Set 2. [Related pubchem assays (depositor defined):AID1961, AID1965]; format: functional
Chain of G-protein coupled receptor 55 (Q9Y2T6 whole entry): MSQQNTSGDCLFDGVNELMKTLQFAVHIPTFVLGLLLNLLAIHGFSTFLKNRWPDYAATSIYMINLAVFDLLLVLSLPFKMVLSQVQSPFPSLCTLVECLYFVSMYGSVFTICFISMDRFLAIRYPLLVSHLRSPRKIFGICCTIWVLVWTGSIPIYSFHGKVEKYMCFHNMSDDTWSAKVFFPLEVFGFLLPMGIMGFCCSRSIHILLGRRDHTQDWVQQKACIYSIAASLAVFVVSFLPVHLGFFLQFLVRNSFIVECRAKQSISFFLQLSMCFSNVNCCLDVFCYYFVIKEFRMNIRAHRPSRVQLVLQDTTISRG

[8] = target: DNA damage-inducible transcript 3 protein (Mus musculus, UniProt P35639); format: functional, Cricetulus griseus
Chain of DNA damage-inducible transcript 3 protein (P35639 whole entry): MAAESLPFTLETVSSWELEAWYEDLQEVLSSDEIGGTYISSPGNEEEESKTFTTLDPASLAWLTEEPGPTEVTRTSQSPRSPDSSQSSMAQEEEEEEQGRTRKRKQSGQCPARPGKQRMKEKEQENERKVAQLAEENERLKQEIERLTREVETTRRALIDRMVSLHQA

[9] = tested on: INS1; assay: INS-1E survival protection against cytokine death – cell-based, luminescence, retest, dose response (AID 449756); format: functional; details: Rattus norvegicus;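 note: cell death triggered by IL-1 beta plus TNF-alpha plus IFN-gamma mixture; protective hits raise ATP signal compared with cytokine alone wells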
[10] = A549 cell cytotoxicity, dose response, cytotoxicity control, plate reader, cherry-pick, antagonist series (AID 743412); format: functional, cell-based
[11] = tested on: Streptococcus; assay: GAS UMAA2166 growth inhibition – luminescence, BacTiterGlo, counter-screen for streptokinase expression inhibitor project, dose response (AID 1915); format: functional, organism-based;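 note: potency for reduction of bacterial viability or growth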
[12] = blockers of bursicon-stimulated LGR2 cAMP reporter – cell-based, HEK293, CRE-luciferase reporter, cherry pick, set 2, dose response (AID 743343); format: functional;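 note: transfected cells were stimulated with diluted bursicon conditioned medium after compound addition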
[13] = viability loss in HEK293 cells – cell-based, plate reader, cherry-picked samples, cytotoxicity control, dose response (AID 743446); format: functional
[14] = target: T4, Streptokinase A (Streptococcus pyogenes serotype M1, UniProt P10520); assay: viability-normalized secreted streptokinase activity reduction – plasminogen activation absorbance, OD405, dose response (AID 1914); format: functional, Streptococcus pyogenes M1 GAS;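 note: secreted streptokinase activity via plasminogen activation per viability signal from cell pellet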
T4 sequence (P10520 whole entry): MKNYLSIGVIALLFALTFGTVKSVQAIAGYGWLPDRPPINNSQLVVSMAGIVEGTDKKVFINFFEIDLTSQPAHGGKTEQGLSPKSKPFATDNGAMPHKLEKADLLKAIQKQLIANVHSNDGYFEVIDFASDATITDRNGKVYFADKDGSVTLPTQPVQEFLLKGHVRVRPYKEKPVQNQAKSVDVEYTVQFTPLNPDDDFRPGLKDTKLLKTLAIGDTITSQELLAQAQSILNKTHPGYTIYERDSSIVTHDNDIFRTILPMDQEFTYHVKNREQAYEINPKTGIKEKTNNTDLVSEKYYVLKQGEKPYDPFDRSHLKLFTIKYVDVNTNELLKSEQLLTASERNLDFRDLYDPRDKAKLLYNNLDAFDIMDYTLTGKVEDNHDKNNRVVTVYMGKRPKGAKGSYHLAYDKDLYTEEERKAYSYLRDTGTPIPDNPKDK

[15] = blockade of melanocortin 4 receptor signaling – cell-based, plate reader, cherry pick, counter-screen for LGR2 antagonist project, dose response (AID 743444); format: functional;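 note: transfected HEK 293 cells stimulated with alpha-MSH peptide; potency of inhibitors of the alpha-MSH evoked signal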
[16] = tested on: Streptococcus sp. 'group A'; assay: Streptococcus pyogenes SK(-)GAS viability under kanamycin – luminescence, BacTiterGlo, confirmation, counter-screen for streptokinase expression inhibitor project, dose response (AID 1900); format: functional, organism-based
[17] = target: T5, Type-1 angiotensin II receptor (Homo sapiens, UniProt P30556); assay: agonist activity at AGTR1 – cell-based, uHTS hits, selectivity assay for APJ receptor agonist project, dose response (AID 488865); format: functional;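 note: beta-arrestin recruitment to AT1 measured by enzyme fragment complementation luminescence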
T5 sequence (P30556 whole entry): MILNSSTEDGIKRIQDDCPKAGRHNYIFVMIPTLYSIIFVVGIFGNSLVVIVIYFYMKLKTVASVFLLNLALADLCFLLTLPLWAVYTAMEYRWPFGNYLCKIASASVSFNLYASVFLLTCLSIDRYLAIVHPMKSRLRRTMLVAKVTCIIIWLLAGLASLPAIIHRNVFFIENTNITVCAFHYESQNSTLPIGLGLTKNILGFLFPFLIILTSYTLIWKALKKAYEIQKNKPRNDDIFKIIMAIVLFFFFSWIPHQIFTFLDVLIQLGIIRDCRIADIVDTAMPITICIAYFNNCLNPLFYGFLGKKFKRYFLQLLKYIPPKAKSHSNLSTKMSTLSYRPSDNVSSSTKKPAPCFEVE

[18] = toxicity toward HepG2 liver cells – cell-based, plate reader, cherry-pick, antagonist series, cytotoxicity control, dose response (AID 743416); format: functional
[19] = tested on: T-cell; assay: loss of vesicle association with mouse CD8+ T cells – mouse 2C CD8+ T cells, flow cytometry, dose response (AID 485284); format: functional
[20] = target: T6, Protein RecA (Mycobacterium tuberculosis, UniProt P9WHJ3); assay: Fluorescence Cell-Free Homogeneous Dose Retest to Identify Inhibitors of RecA-Intein Splicing Activity. [Related pubchem assays (depositor defined):AID2097, AID2223, AID489010, AID492950]; format: functional
T6 sequence (P9WHJ3 whole entry): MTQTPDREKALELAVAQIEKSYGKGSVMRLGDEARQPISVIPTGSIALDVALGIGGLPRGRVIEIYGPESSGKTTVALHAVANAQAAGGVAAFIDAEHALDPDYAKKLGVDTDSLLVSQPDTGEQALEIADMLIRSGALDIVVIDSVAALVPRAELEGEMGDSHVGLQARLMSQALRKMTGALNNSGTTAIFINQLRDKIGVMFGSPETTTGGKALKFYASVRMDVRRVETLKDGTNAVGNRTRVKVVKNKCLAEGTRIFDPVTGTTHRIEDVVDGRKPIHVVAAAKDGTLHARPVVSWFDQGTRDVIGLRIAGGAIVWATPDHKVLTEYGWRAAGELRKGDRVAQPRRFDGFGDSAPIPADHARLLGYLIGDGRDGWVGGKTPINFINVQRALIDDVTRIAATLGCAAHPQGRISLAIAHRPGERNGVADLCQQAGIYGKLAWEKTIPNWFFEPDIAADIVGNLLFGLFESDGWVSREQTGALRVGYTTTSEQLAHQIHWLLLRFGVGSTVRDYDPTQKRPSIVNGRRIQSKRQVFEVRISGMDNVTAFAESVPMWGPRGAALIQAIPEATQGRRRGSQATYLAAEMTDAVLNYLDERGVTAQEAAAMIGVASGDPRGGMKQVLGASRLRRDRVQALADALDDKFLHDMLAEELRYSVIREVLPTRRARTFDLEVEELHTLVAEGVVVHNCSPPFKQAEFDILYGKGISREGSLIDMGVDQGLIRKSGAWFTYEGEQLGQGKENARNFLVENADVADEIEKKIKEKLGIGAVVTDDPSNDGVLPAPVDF

[21] = target: T7, Leucine aminopeptidase (Plasmodium falciparum 3D7, UniProt Q8IL11); assay: P. falciparum M17LAP inhibitors, primary screen, biochemical, fluorogenic H-Leu-NHMec substrate, 1536-well (AID 1619); format: functional
T7 sequence (Q8IL11 whole entry): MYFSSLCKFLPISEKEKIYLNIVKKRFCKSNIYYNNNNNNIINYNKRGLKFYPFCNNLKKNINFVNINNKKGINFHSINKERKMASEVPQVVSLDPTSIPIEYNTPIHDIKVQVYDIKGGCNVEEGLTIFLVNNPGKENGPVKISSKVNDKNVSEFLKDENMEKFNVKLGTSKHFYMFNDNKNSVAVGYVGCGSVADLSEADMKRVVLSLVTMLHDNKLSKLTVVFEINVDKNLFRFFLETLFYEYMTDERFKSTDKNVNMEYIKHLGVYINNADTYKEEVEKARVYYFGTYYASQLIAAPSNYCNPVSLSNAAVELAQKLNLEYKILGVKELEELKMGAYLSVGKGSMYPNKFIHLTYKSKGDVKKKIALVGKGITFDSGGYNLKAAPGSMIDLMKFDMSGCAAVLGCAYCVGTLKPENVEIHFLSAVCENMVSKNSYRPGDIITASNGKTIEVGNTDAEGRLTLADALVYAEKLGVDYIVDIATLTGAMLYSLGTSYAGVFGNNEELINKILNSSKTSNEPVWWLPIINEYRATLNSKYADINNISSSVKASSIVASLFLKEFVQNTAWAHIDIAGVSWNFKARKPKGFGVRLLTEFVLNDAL

[22] = target: T8, Replicative DNA helicase DnaB (Mycobacterium tuberculosis, UniProt P9WMR3); assay: DnaB intein splicing inhibitors, dose response, biochemical, cell-free fluorescence (AID 449749); format: functional
T8 sequence (P9WMR3 whole entry): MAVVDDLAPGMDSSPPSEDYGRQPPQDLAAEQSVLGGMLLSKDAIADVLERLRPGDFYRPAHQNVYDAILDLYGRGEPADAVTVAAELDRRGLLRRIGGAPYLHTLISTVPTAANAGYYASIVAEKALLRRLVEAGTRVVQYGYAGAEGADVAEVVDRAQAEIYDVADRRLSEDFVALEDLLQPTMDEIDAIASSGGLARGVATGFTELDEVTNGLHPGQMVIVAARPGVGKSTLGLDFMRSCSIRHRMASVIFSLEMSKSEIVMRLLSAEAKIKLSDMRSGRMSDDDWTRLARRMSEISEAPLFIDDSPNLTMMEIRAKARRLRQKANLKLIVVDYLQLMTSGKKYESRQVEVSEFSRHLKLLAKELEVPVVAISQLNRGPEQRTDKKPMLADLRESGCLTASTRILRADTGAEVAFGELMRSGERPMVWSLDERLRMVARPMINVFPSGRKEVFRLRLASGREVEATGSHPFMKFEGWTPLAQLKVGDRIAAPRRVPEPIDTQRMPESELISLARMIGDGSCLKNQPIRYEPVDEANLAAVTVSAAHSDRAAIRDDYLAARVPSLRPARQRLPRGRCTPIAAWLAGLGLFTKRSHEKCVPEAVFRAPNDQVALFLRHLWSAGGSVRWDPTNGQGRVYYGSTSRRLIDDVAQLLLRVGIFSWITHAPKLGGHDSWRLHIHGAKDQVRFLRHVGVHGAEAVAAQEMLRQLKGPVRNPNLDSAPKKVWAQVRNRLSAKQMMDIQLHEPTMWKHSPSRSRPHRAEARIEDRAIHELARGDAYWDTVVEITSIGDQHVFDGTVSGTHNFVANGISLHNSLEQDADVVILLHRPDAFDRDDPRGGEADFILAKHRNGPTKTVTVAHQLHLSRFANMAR

[23] = Intein inhibitors as potential Tuberculosis drugs, a cytotoxicity screen. [Related pubchem assays (depositor defined):AID2221, AID2223, AID434968, AID435010, AID449749, AID449750, AID489010]; format: functional
[24] = tested on: Vibrio harveyi; assay: LuxS/LuxPQ-dependent luminescence inhibition, V. harveyi – dry powder, set 2, dose response (AID 493072); format: functional, organism-based
[25] = tested on: Vibrio harveyi; assay: Quorum Sensing, LuxS, LuxPQ Measured in Microorganism System Using Plate Reader - 2035-01_Inhibitor_DoseNoFile_DryPowder_Activity. [Related pubchem assays (depositor defined):AID2106]; format: functional, organism-based
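Throughout, for CC50: cells exposed to compound for 72 hours before luminescence readout.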

T1 sequence (P34972 whole entry): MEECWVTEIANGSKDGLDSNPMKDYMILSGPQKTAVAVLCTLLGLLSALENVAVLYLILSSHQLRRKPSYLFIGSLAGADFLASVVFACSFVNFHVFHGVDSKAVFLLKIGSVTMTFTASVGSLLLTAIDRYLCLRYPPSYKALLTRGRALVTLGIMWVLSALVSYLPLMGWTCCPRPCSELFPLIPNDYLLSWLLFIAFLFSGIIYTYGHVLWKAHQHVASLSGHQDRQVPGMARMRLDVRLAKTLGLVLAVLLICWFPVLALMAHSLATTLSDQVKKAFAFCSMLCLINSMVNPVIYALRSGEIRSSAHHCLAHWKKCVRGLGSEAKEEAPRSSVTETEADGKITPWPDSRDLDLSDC

COc1ccc(-c2csc(NC(=O)CSc3nnc4c(C)cc5cc6c(cc5n34)OCCO6)n2)cc1
IC50 [1]: > 32 µM (inactive)
EC50 [2]: > 32 µM (inactive)
IC50 [3]: > 32 µM (inactive)
EC50 [4]: > 32 µM (inactive)
EC50 [5]: > 32 µM (inactive)
IC50 [6]: > 32 µM (inactive)
EC50 [7]: > 32 µM (inactive)

O=C(Cc1csc(Nc2nc(S)nc3ccccc23)n1)NCCCN1CCN(c2ccccc2F)CC1
Absolute IC50 (CHOP) [8]: 10 µM

CCCCNc1c(-c2cccc(-c3ccc(OC)cc3)c2)nc2ccc(C)cn12
AC50 [9]: 7.86 µM (active)
AC50 [10]: 28.7 µM (active)
EC50 [11]: 13.3 µM (active)
AC50 [12]: 10.7 µM (active)
AC50 [13]: 29.6 µM (active)
EC50 [14]: 7.94 µM (active)
AC50 [15]: 11 µM (active)
EC50 [16]: 4.54 µM (active)
EC50 [17]: > 100 µM (inactive)
AC50 [18]: 28.4 µM (active)

CN(Cc1ccccc1)C(=O)c1ccc(NC(=O)Cc2cccc(NC(=O)C3CCCN(C(=O)C4CCC4)C3)c2)cc1 (stereo not given)
EC50 [19]: 5.41 µM (active)

N#CC1=C(N)Oc2[nH]nc(-c3ccccc3)c2C1c1ccsc1 (stereo not given)
EC50 [20]: 0.731 µM (active)
IC50 [21]: 64.5 µM (active)
AC50 [22]: 0.142 µM (active)
CC50 [23]: > 40 µM (active)

O=C1C=C/C(=C/Br)O1
AC50 [24]: 3.1 µM (active)
AC50 [25]: 4.81 µM (active)
